Results as given in the CheMixHub viscosity set.

Test: xn = mol fraction of the nth substance listed

CCCCNCCCC + CCC(=O)O
viscosity [mPa·s], 101.33 kPa
Conditions | 293.15 K | 293.5 K | 298.15 K | 303.15 K | 308.15 K | 313.15 K | 318.15 K | 323.15 K
x2 = 0.2 | – | 2.45 | 2.21 | 2.05 | 1.87 | 1.69 | 1.54 | 1.44
x2 = 0.4 | 20.21 | – | 15.81 | 12.24 | 9.94 | 7.97 | 6.42 | 5.61
x2 = 0.5 | – | – | – | 48.04 | 35.66 | 27.31 | 21.32 | 17.49
x2 = 0.6 | 109.3 | – | 80.86 | 64.2 | 49.41 | 39.46 | 31.87 | 25.8
x2 = 0.7 | 125.9 | – | 94.32 | 72.81 | 54.5 | 42.04 | 34.15 | 27.7
x2 = 0.75 | 139.3 | – | 102.5 | 74.31 | 58.19 | 44.26 | 35.31 | 27.67
x2 = 0.8 | 16.74 | – | 14.24 | 11.85 | 10.22 | 8.75 | 7.62 | 6.98

CCCC(=O)O + CCC(C)=O
viscosity [mPa·s], 101 kPa
Conditions | x2 = 0.1024 | x2 = 0.2043 | x2 = 0.3057 | x2 = 0.4065 | x2 = 0.5067 | x2 = 0.6064 | x2 = 0.7056 | x2 = 0.8043 | x2 = 0.9024
293.15 K | 1.383 | 1.236 | 1.1 | 0.9737 | 0.8582 | 0.7526 | 0.6569 | 0.571 | 0.4948
303.15 K | 1.2 | 1.078 | 0.9646 | 0.8589 | 0.761 | 0.6716 | 0.5897 | 0.515 | 0.4485
313.15 K | 1.021 | 0.9263 | 0.8368 | 0.7525 | 0.6733 | 0.5989 | 0.5293 | 0.4645 | 0.4044

COCCO + CCC(C)=O
viscosity [mPa·s]
Conditions | 298.15 K | 308.15 K | 318.15 K
101 kPa, x2 = 0.1049 | 1.321 | – | –
101 kPa, x2 = 0.2087 | 1.113 | – | –
101 kPa, x2 = 0.3115 | 0.937 | – | –
101 kPa, x2 = 0.413 | 0.78 | – | –
101 kPa, x2 = 0.5135 | 0.64 | – | –
101 kPa, x2 = 0.6128 | 0.525 | – | –
101 kPa, x2 = 0.7112 | 0.464 | – | –
101 kPa, x2 = 0.8085 | 0.43 | – | –
101 kPa, x2 = 0.9047 | 0.41 | – | –
101.33 kPa, x1 = 0.1014 | 0.423 | 0.378 | 0.339
101.33 kPa, x1 = 0.2118 | 0.474 | 0.419 | 0.373
101.33 kPa, x1 = 0.3001 | 0.53 | 0.469 | 0.418
101.33 kPa, x1 = 0.3864 | 0.591 | 0.521 | 0.463
101.33 kPa, x1 = 0.4984 | 0.695 | 0.607 | 0.534
101.33 kPa, x1 = 0.601 | 0.805 | 0.696 | 0.607
101.33 kPa, x1 = 0.695 | 0.938 | 0.802 | 0.692
101.33 kPa, x1 = 0.8004 | 1.12 | 0.945 | 0.803
101.33 kPa, x1 = 0.9019 | 1.334 | 1.108 | 0.931

CCCCBr + CCC(C)O
viscosity [mPa·s], 101.33 kPa
Conditions | x2 = 0.11 | x2 = 0.208 | x2 = 0.3145 | x2 = 0.3968 | x2 = 0.4998 | x2 = 0.6057 | x2 = 0.7046 | x2 = 0.786 | x2 = 0.8988
298.15 K | 0.613 | 0.642 | 0.689 | 0.742 | 0.833 | 0.975 | 1.176 | 1.428 | 2.018
308.15 K | 0.538 | 0.552 | 0.581 | 0.614 | 0.675 | 0.77 | 0.905 | 1.075 | 1.461
318.15 K | 0.483 | 0.492 | 0.512 | 0.537 | 0.579 | 0.653 | 0.741 | 0.855 | 1.111

CCCCNCCCC + CCC(C)O
viscosity [mPa·s]
Conditions | 298.15 K | 303.15 K | 308.15 K | 318.15 K
101 kPa, x1 = 0.008423 | – | 2.446 | – | –
101 kPa, x1 = 0.01776 | – | 2.42 | – | –
101 kPa, x1 = 0.02719 | – | 2.398 | – | –
101 kPa, x1 = 0.03174 | – | 2.389 | – | –
101 kPa, x1 = 0.04204 | – | 2.369 | – | –
101 kPa, x1 = 0.0502 | – | 2.353 | – | –
101 kPa, x1 = 0.06011 | – | 2.332 | – | –
101 kPa, x1 = 0.06621 | – | 2.32 | – | –
101 kPa, x1 = 0.07608 | – | 2.299 | – | –
101.33 kPa, x1 = 0.0594 | 2.662 | – | 1.888 | 1.409
101.33 kPa, x1 = 0.0839 | 2.525 | – | 1.79 | 1.328
101.33 kPa, x1 = 0.1282 | 2.305 | – | 1.657 | 1.24
101.33 kPa, x1 = 0.1858 | 2.06 | – | 1.516 | 1.147
101.33 kPa, x1 = 0.2618 | 1.787 | – | 1.344 | 1.054
101.33 kPa, x1 = 0.3612 | 1.511 | – | 1.181 | 0.948
101.33 kPa, x1 = 0.4306 | 1.373 | – | 1.089 | 0.886
101.33 kPa, x1 = 0.5042 | 1.246 | – | 1.012 | 0.827
101.33 kPa, x1 = 0.5658 | 1.16 | – | 0.952 | 0.784
101.33 kPa, x1 = 0.6215 | 1.095 | – | 0.898 | 0.753
101.33 kPa, x1 = 0.6856 | 1.031 | – | 0.855 | 0.712
101.33 kPa, x1 = 0.7458 | 0.986 | – | 0.818 | 0.696
101.33 kPa, x1 = 0.794 | 0.959 | – | 0.803 | 0.684
101.33 kPa, x1 = 0.8584 | 0.905 | – | 0.76 | 0.681
101.33 kPa, x1 = 0.9138 | 0.859 | – | 0.733 | 0.661

COCCO + CCC(C)O
viscosity [mPa·s]
Conditions | 298.15 K | 303.15 K | 313.15 K
100 kPa, x1 = 0.1007 | 2.54 | – | 1.61
100 kPa, x1 = 0.202 | 2.2 | – | 1.46
100 kPa, x1 = 0.3022 | 1.98 | – | 1.36
100 kPa, x1 = 0.4018 | 1.83 | – | 1.29
100 kPa, x1 = 0.5022 | 1.73 | – | 1.24
100 kPa, x1 = 0.6017 | 1.66 | – | 1.21
100 kPa, x1 = 0.701 | 1.61 | – | 1.19
100 kPa, x1 = 0.8006 | 1.58 | – | 1.18
100 kPa, x1 = 0.9006 | 1.56 | – | 1.18
101.3 kPa, x1 = 0.1228 | – | 2.584 | –
101.3 kPa, x1 = 0.209 | – | 2.261 | –
101.3 kPa, x1 = 0.3377 | – | 1.898 | –
101.3 kPa, x1 = 0.428 | – | 1.714 | –
101.3 kPa, x1 = 0.5977 | – | 1.488 | –
101.3 kPa, x1 = 0.6442 | – | 1.45 | –
101.3 kPa, x1 = 0.7067 | – | 1.411 | –
101.3 kPa, x1 = 0.8447 | – | 1.368 | –
101.3 kPa, x1 = 0.9188 | – | 1.308 | –
